From patent US9982073B2, “Homopolymers of terpenoid alcohols and their uses” (priority 2015, dated 2018)

Columns and labels:
Type in all cases: cell-based
Escherichia coli = assay: Disk inhibition testing, E. coli; settings: 24 hours at 37° C.; for zone of inhibition at 100 µg/disc: Escherichia coli, 100 μg sample per disk, NI = no inhibition, read-out: Diameter of zone of growth inhibition, E. Coli
Description: (§1) Tubes of Tryptic Soy Broth (10 mL/tube,) were prepared according to manufacturer directions (Difco) using aseptic techniques. Bacterial broth of Escherichia coli, Staphylococcus aureus, Pseudomonas aeruginosa, Proteus hauseri, and Bacillus cereus were prepared in a tissue culture hood by transferring frozen stock culture (−70° C. freezer, prepared from ATCC bacterial quality control strains) of the given bacteria to the broth tube. The E. coli, S. aureus, P. aeruginosa, and P. hauseri culture tubes were then incubated for 24 hours at 37° C. and the B. cereus culture tubes were incubated at 30° C. for 24 hours.
(§2) Each sample (˜15 mg) was dissolved in a solvent (3.000 mL of tetrahydrofuran or 3.000 mL distilled water) depending on the sample's solubility. The sample (20 μL of sample solution or 100 μg of sample was then transferred to a sterile filter paper disk. The disk was then allowed to dry so that all solvent was evaporated and 100 μg of sample remained on the disk.
(§3) Plates of Mueller Hinton II Agar (Difco) were prepared according to manufacturer directions using aseptic techniques. The bacterial agar plates were prepared using the bacterial culture broth of E. coli, S. aureus, P. aeruginosa, P. hauseri, or B. cereus as prepared above after the incubation period. In a tissue culture hood, the given bacterial culture broth solution (300 μL) was transferred to each Mueller Hinton Agar II plate and spread evenly over the agar and allowed to dry for a minimum of 20 minutes. Four sample disks (as prepared above) or control antibiotic disks (pre-made disks) were then places onto each agar plate, one in the center of each quadrant of the plate.
(§4) The E. coli, S. aureus, P. aeruginosa, and P. hauseri, plates were incubated for 24 hours at 37° C. and the B. cereus plates were incubated for 24 hours at 30° C. The plates were then observed for zones of bacterial growth inhibition. Where a zone of growth inhibition was observed, the diameter of the ring was measured to the closest 0.1 mm using a caliper. […] The absence of a uniform bacterial lawn was ruled a failed test and in this case the test would need to be repeated in order to achieve meaningful results.

Staphylococcus aureus = assay: Disk inhibition testing, S. aureus; settings: 24 hours at 37° C.; for zone of inhibition at 100 µg/disc: Staphylococcus aureus, 100 μg sample per disk, NI = no inhibition, read-out: Diameter of zone of growth inhibition, S. Aureus
Description: as §1, §2, §3, §4

Proteus hauseri = assay: Disk inhibition testing, P. hauseri; settings: 24 hours at 37° C.; for zone of inhibition at 100 µg/disc: Proteus hauseri, 100 μg sample per disk, NI = no inhibition, read-out: Diameter of zone of growth inhibition, P. Hauseri
Description: as §1, §2, §3, §4

Aspergillus niger = assay: Disk inhibition testing, A. niger; settings: 48 hours at 25° C.
Description: (§5) Fungal broths of Aspergillus fumigatus and Aspergillus niger were prepared in a tissue culture hood by transferring the frozen stock culture (−70° C. freezer) of the given fungi to a plate of Sabourad Dextrose Agar. The A. fumigatus culture plates were incubated for 48 hours at 37° C. and the A. niger culture plates were incubated for 72 hours at 25° C. The fungal broth was prepared by using a cork borer to add 2-3 circular pieces of agar containing active fungal growth to distilled water (4.0 mL). A tissue homogenizer was then used to grind the agar and create a suspension of fungal spores.
as §2, with “the disk. […]” for “the disk.”
(§6) The C. albicans and A. fumigfatus plates were incubated for 24 hours at 37° C., the A. niger plates were incubated for 48 hours at 25° C. and the S. cerevisiae plates were incubated for 24 hours at 30° C. […] Where a zone of growth inhibition was observed, the diameter of the ring was measured to the closest 0.1 mm using a caliper. […]

Candida albicans = assay: Disk inhibition testing, C. albicans; settings: 24 hours at 37° C.
Description: (§7) Plates of Sabourad Dextrose Agar (Difco) and tubes of Malt Extract Broth (20 mL/tube) were prepared according to manufacturer direction using aseptic techniques. Fungal broths of Saccharomyces cerevisiae and Candida albicans were prepared in a tissue culture hood by transferring frozen stock culture (−70° C. freezer, prepared from ATCC bought strains) of the given fungi to the broth tube. The S. cerevisiae culture tubes were incubated for 48 hours at 30° C. and the C. albicans culture tubes were incubated for 48 hours at 37° C.
as §2
Plates of Sabourad Dextrose Agar (Difco) were prepared according to manufacture directions using aseptic techniques. […]
as §6

Pseudomonas aeruginosa = assay: Disk inhibition testing, P. aeruginosa; settings: 24 hours at 37° C.
Description: as §1, §2, §3, §4

Bacillus cereus = assay: Disk inhibition testing, B. cereus; settings: pre-made control disk 30 μg; 24 hours at 30° C.
Description: as §1, §2
Plates of Mueller Hinton II Agar (Difco) were prepared according to manufacturer directions using aseptic techniques. […]
The E. coli, S. aureus, P. aeruginosa, and P. hauseri, plates were incubated for 24 hours at 37° C. and the B. cereus plates were incubated for 24 hours at 30° C. […] Where a zone of growth inhibition was observed, the diameter of the ring was measured to the closest 0.1 mm using a caliper. […]

Saccharomyces cerevisiae = assay: Disk inhibition testing, S. cerevisiae; settings: 24 hours at 30° C.; for zone of inhibition at 100 µg/disc: Saccharomyces cerevisiae, 100 μg sample per disk, NI = no inhibition, read-out: Diameter of zone of growth inhibition, S. Cerevisiae
Description: as §7, §2
Plates of Sabourad Dextrose Agar (Difco) were prepared according to manufacture directions using aseptic techniques. The fungal agar plates were prepared using the culture broth of S. cerevisiae, C. albicans, A. fumigatus or A. niger as prepared above after the incubation period. In a tissue culture hood, the fungal culture broth solution (200 μL) was transferred to each Sabourad Dextrose Agar plate and spread evenly over the agar and allowed to dry for a minimum of 20 minutes. Four sample disks or control antifungal disks were then places onto each agar plate, one in the center of each quadrant of the plate. The sample disks were prepared as described above and the antifungal disks were pre-made disks of 20 μg of amphotericin B.
The C. albicans and A. fumigfatus plates were incubated for 24 hours at 37° C., the A. niger plates were incubated for 48 hours at 25° C. and the S. cerevisiae plates were incubated for 24 hours at 30° C. The plates were then observed for zones of fungal growth inhibition. Where a zone of growth inhibition was observed, the diameter of the ring was measured to the closest 0.1 mm using a caliper. […]

Aspergillus fumigatus = assay: Disk inhibition testing, A. fumigatus; settings: pre-made antifungal disk 20 μg; 24 hours at 37° C.
Description: as §5
as §2, with “the disk. […]” for “the disk.”
as §6

Compound: CC(C)=CCC/C(C)=C/CO [Geraniol]
- zone of inhibition at 100 µg/disc (Escherichia coli): 8.5 mm
- zone of inhibition at 100 µg/disc (Staphylococcus aureus): 4.7 mm
- zone of inhibition at 100 µg/disc (Proteus hauseri): 9.3 mm
- zone of inhibition at 100 µg/disc (Aspergillus niger; Aspergillus niger, 100 μg sample per disk, NI = no inhibition, read-out: Diameter of zone of growth inhibition, A. Niger): 8.1 mm
- zone of inhibition at 100 µg/disc (Candida albicans; Candida albicans, 100 μg sample per disk, NI = no inhibition, read-out: Diameter of zone of growth inhibition, C. Albicans): 8.3 mm

Compound: O=C(N[C@H](CO)[C@H](O)c1ccc([N+](=O)[O-])cc1)C(Cl)Cl [Chloramphenicol]
- Diameter of zone of growth inhibition, E. Coli (Escherichia coli; pre-made control disk 30 μg): 24.4 mm
- Diameter of zone of growth inhibition, S. Aureus (Staphylococcus aureus; pre-made control disk 30 μg): 17.8 mm
- Diameter of zone of growth inhibition, P. Aeriginosa (Pseudomonas aeruginosa; pre-made control disk 30 μg): 18.7 mm
- Diameter of zone of growth inhibition, P. Hauseri (Proteus hauseri; pre-made control disk 30 μg): 16.7 mm
- Diameter of zone of growth inhibition, B. Cereus (Bacillus cereus): 15.7 mm

Compound: C[C@@H]1[C@H](O)[C@@H](C)/C=C/C=C/C=C/C=C/C=C/C=C/C=C/[C@H](O[C@@H]2O[C@H](C)[C@@H](O)[C@H](N)[C@@H]2O)C[C@@H]2O[C@](O)(C[C@@H](O)C[C@@H](O)[C@H](O)CC[C@@H](O)C[C@@H](O)CC(=O)O[C@H]1C)C[C@H](O)[C@H]2C(=O)O [Amphotericin B, amphotericin B]
- Diameter of zone of growth inhibition, A. Niger (Aspergillus niger; pre-made antifungal disk 20 μg): 9.7 mm
- Diameter of zone of growth inhibition, S. Cerevisiae (Saccharomyces cerevisiae; pre-made antifungal disk 20 μg): 10.2 mm
- Diameter of zone of growth inhibition, C. Albicans (Candida albicans; pre-made antifungal disk 20 μg): 12.9 mm
- Diameter of zone of growth inhibition, A. Fumigratus (Aspergillus fumigatus): 11.4 mm

Compound: Penicillin
- Diameter of zone of growth inhibition, E. Coli (Escherichia coli; pre-made control disk 10 μg): 9.4 mm
- Diameter of zone of growth inhibition, S. Aureus (Staphylococcus aureus; pre-made control disk 10 μg): 16.9 mm
- Diameter of zone of growth inhibition, P. Hauseri (Proteus hauseri; pre-made control disk 10 μg): 8.1 mm

Compound: C=CC(C)(O)CCC=C(C)C (centres unmarked) [Linalool]
- zone of inhibition at 100 µg/disc (Escherichia coli): 7.2 mm
- zone of inhibition at 100 µg/disc (Pseudomonas aeruginosa; Pseudomonas aeruginosa, 100 μg sample per disk, NI = no inhibition, read-out: Diameter of zone of growth inhibition, P. Aeriginosa): 7.1 mm
- zone of inhibition at 100 µg/disc (Saccharomyces cerevisiae): 7.3 mm

Compound: CC(C)=CCCC(C)CCO (centres unmarked) [Citronellol]
- zone of inhibition at 100 µg/disc (Escherichia coli): 8.7 mm
- zone of inhibition at 100 µg/disc (Staphylococcus aureus): 5.4 mm
- zone of inhibition at 100 µg/disc (Proteus hauseri): 8.8 mm
- zone of inhibition at 100 µg/disc (Saccharomyces cerevisiae): 6.7 mm

Compound: CN(C)[C@@H]1C(O)=C(C(N)=O)C(=O)[C@@]2(O)C(O)=C3C(=O)c4c(O)cccc4[C@@](C)(O)[C@H]3C[C@@H]12 [Tetracycline]
- Diameter of zone of growth inhibition, E. Coli (Escherichia coli; pre-made control disk 30 μg): 21.4 mm
- Diameter of zone of growth inhibition, S. Aureus (Staphylococcus aureus; pre-made control disk 30 μg): 19.0 mm
- Diameter of zone of growth inhibition, P. Aeriginosa (Pseudomonas aeruginosa; pre-made control disk 30 μg): 12.3 mm
- Diameter of zone of growth inhibition, P. Hauseri (Proteus hauseri; pre-made control disk 30 μg): 15.9 mm
- Diameter of zone of growth inhibition, B. Cereus (Bacillus cereus): 23.4 mm

Compound: CC1(C)S[C@@H]2[C@H](NC(=O)[C@H](N)c3ccccc3)C(=O)N2[C@H]1C(=O)O [Ampicillin]
- Diameter of zone of growth inhibition, E. Coli (Escherichia coli; pre-made control disk 10 μg): 19.7 mm
- Diameter of zone of growth inhibition, P. Aeriginosa (Pseudomonas aeruginosa; pre-made control disk 10 μg, NI = no inhibition): 9.1 mm
- Diameter of zone of growth inhibition, P. Hauseri (Proteus hauseri; pre-made control disk 10 μg): 7.2 mm
